pIC50: −log10 of the molar value.
Tested on: 996289-038-R-J1-PDC complex spheroid viability
Test: Anticancer human tumor 996289-038-R-J1-PDC patient-derived colon adenocarcinoma cell line growth inhibition [CLK]
Conditions: for pIC50: curve of first compound; for viability, T/C: stronger effect = lower value; active = viability on the fitted dose curve at most 10% of control; inactive = the rest
Procedure, shortened: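 Patient-derived tumor cells grown as complex spheroids with HUVEC endothelial cells and mesenchymal stem cells, treated with drug combinations. Concentrations descend in half-log steps from near clinical Cmax, or from 10 microM if Cmax unknown.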
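Also: spheroids exposed to the agents for 7 days before readout.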

Cn1ncnc1[C@H]1c2n[nH]c(=O)c3cc(F)cc(c23)N[C@@H]1c1ccc(F)cc1 + CNC(=O)c1ccc(Nc2nc(OC3CCCC3)c3c(-c4ccc5nc(C)oc5c4)c[nH]c3n2)c(OC)c1
inactive: viability, T/C (second compound 0.0316 µM, first compound 0.000316 µM) 127% | viability, T/C (second compound 0.0316 µM, first compound 0.001 µM) 114% | viability, T/C (second compound 0.0316 µM, first compound 0.00316 µM) 118% | viability, T/C (second compound 0.0316 µM, first compound 0.01 µM) 124% | viability, T/C (second compound 0.0316 µM, first compound 0.0316 µM) 133% | viability, T/C (second compound 0.0316 µM, first compound 0.1 µM) 108% | viability, T/C (second compound 0.1 µM, first compound 0.000316 µM) 127% | viability, T/C (second compound 0.1 µM, first compound 0.001 µM) 124% | viability, T/C (second compound 0.1 µM, first compound 0.00316 µM) 128% | viability, T/C (second compound 0.1 µM, first compound 0.01 µM) 134% | viability, T/C (second compound 0.1 µM, first compound 0.0316 µM) 124% | viability, T/C (second compound 0.1 µM, first compound 0.1 µM) 105% | viability, T/C (second compound 0.316 µM, first compound 0.000316 µM) 86.6% | viability, T/C (second compound 0.316 µM, first compound 0.001 µM) 80.5% | viability, T/C (second compound 0.316 µM, first compound 0.00316 µM) 81.6% | viability, T/C (second compound 0.316 µM, first compound 0.01 µM) 78.8% | viability, T/C (second compound 0.316 µM, first compound 0.0316 µM) 80.9% | viability, T/C (second compound 0.316 µM, first compound 0.1 µM) 74.9% | viability, T/C (second compound 1 µM, first compound 0.000316 µM) 74.8% | viability, T/C (second compound 1 µM, first compound 0.001 µM) 67.4% | viability, T/C (second compound 1 µM, first compound 0.00316 µM) 65.7% | viability, T/C (second compound 1 µM, first compound 0.01 µM) 64% | viability, T/C (second compound 1 µM, first compound 0.0316 µM) 65.5% | viability, T/C (second compound 1 µM, first compound 0.1 µM) 58.6% | viability, T/C (second compound 3.16 µM, first compound 0.000316 µM) 63.7% | viability, T/C (second compound 3.16 µM, first compound 0.001 µM) 59.3% | viability, T/C (second compound 3.16 µM, first compound 0.00316 µM) 59% | viability, T/C (second compound 3.16 µM, first compound 0.01 µM) 58.5% | viability, T/C (second compound 3.16 µM, first compound 0.0316 µM) 63.7% | viability, T/C (second compound 3.16 µM, first compound 0.1 µM) 55% | viability, T/C (second compound 10 µM, first compound 0.000316 µM) 66.1% | viability, T/C (second compound 10 µM, first compound 0.001 µM) 60.4% | viability, T/C (second compound 10 µM, first compound 0.00316 µM) 59.7% | viability, T/C (second compound 10 µM, first compound 0.01 µM) 63% | viability, T/C (second compound 10 µM, first compound 0.0316 µM) 63% | viability, T/C (second compound 10 µM, first compound 0.1 µM) 55.7%
< 7.00: pIC50 (second compound 0.0316 µM) | pIC50 (second compound 0.1 µM) | pIC50 (second compound 0.316 µM) | pIC50 (second compound 1 µM) | pIC50 (second compound 3.16 µM) | pIC50 (second compound 10 µM)

Source: PubChem BioAssay AID2060600 (Molecular Pharmacology Branch, DTP, NCI, 2025)
